Entries after “also recorded” stand apart in the source; their conditions may differ. Like-named read-outs stand apart in the source and are kept apart here. *1 amine or outer side, *2 acyl side, *3 side chain or, on linkers, in order; H or OH if unused. Where a SMILES comes first, the peptide text is derived from it. Bridges are numbered along the chain shown (N, C = ends). Roman numbers before positions name the chains, in order. [ ]: non-standard residue; d: D form. Actinocin(9to1) = Cc1c2oc3c(C)ccc(C(=O)[*:1])c3nc-2c(C(=O)[*:2])c(N)c1=O; NMeV = CN[C@H](C(=O)O)C(C)C; Sar = CNCC(=O)O
Tests used:
[1] = test system: HUVEC and MDA-MB-231-H2B-mCherry co-culture; test: Live cell imaging of CIC structures, HUVEC co-culture; format: cell-based, Human; conditions: preliminary
[2] = test system: RPE1-Venus-Parkin and MDA-MB-231-H2B-mCherry co-culture; test: Intercellular gene transfer in co-culture, flow cytometric analysis; format: cell-based
[3] = test system: MDASC43 & RPE1-VEP co-culture; test: 48-hour live cell imaging of CIC structures, MDASC43 co-culture; format: cell-based; conditions: 10 μM Doxorubicin, 100 μM Hygromycin B; for effect on number/frequency of CIC structures / average duration of CIC structures / time at which CIC structures were concentrated: 20 μM Actinomycin D; for average duration of CIC structures / time at which CIC structures were concentrated: alone or combined
F-actin = F-actin stability (Alexa Fluor 594 Phalloidin); format: cell-based; conditions: co-cultured RPE1-VEP and MDA-MB-231-H2BmCherry
Method: Immunofluorescence microscopy was performed as described previously.

[4] = test system: MDA-MB-231-H2B-mCherry and RPE1-Venus-Parkin co-culture; test: Cell entrapment (cell-in-cell structure formation), live-cell imaging; conditions: inhibitor treatment
[5] = compound present in the co-culture, Hygromycin B 100 μM

SMILES	effect on number/frequency of CIC structures [3]	average duration of CIC structures [3]	time at which CIC structures were concentrated [3]	effect on gene transfer [2, 5]	also measured
Cc1c2oc3c(C)ccc(C(=O)N[C@@H]4C(=O)N[C@H](C(C)C)C(=O)N5CCC[C@H]5C(=O)N(C)CC(=O)N(C)[C@@H](C(C)C)C(=O)O[C@@H]4C)c3nc-2c(C(=O)N[C@@H]2C(=O)N[C@H](C(C)C)C(=O)N3CCC[C@H]3C(=O)N(C)CC(=O)N(C)[C@@H](C(C)C)C(=O)O[C@@H]2C)c(N)c1=O [Actinomycin D] (I: T[dV]P[Sar][NMeV] / II: T[dV]P[Sar][NMeV]; ester I:1-I:C, II:1-II:C; linker I:N-II:N via Actinocin(9to1))	significantly increased	6.04 h	9.2 to 15.3 h		average CIC structure duration ([1]; 100 μM Hygromycin B, 20 μM Actinomycin D, or combination, 1 focus field): 2.1 h; time at which CIC structures were concentrated ([1]; 100 μM Hygromycin B, 20 μM Actinomycin D, or combination): 2.9 to 5.1 h; effect on CIC structures (induction, frequency) [1]: induced; effect on gene transfer [2]: prevents; gene transfer percentage [2]: 1.5%
COc1cccc2c1C(=O)c1c(O)c3c(c(O)c1C2=O)C[C@@](O)(C(=O)CO)C[C@@H]3O[C@H]1C[C@H](N)[C@H](O)[C@H](C)O1 [Doxorubicin]	most CIC structure formation; also recorded: significantly increased	11.5 h	13.6 to 25.1 h	inhibiting	effect on CIC structure duration [3]: significantly higher; also recorded: significantly increased
C/C1=C/C(=O)O[C@@H]2C[C@@H](CC[C@H](C)/C=C\CC1)O[C@@](O)([C@@H]1CSC(=O)N1)C2 [Latrunculin B]				significantly decreased	F-actin levels (F-actin): significantly decreased; concentration that resulted in the lowest percentage of gene transfer to RPE cells [2]: 3 µM
COc1ccc(C2CC(c3ccccc3)=NN2c2ccc(S(N)(=O)=O)cc2)cc1 (centres unmarked) [ML141]				decreased; also recorded: significant effect	
Cc1cn([C@H]2C=C[C@@H](CO)O2)c(=O)[nH]c1=O [Stavudine]					IC50 ([2]; later used as positive control of the screen, read-out: IC50 as potential tangocytosis inhibitor): 1830 nM
C[C@@H](N)[C@H]1CC[C@H](C(=O)Nc2ccncc2)CC1 [Y27632]				effect of ROCKs perturbation by RNA depletion was phenocopied	effect on cell entrapment (cell-in-cell structure formation) [4]: effect of ROCKs perturbation by RNA depletion was phenocopied

From US20240409944A1, “COMPOSITIONS AND METHODS FOR THE INHIBITION OF TUMOR METASTASIS AND HORIZONTAL GENE TRANSFER” (The Regents of the University of Colorado, a body corporate, priority 2021, published 2024)
